Where two headings read alike, the source gives them in different places.

One molecule from US20060147348A1, “Sampling device and methods” (priority 2004, published 2006) can be followed below.

The data set in a line: Retention of THC in the mouth after smoking marijuana: THC in saliva and tongue mucus by quantitative GC/MS. It counts as in vivo, human. To be noted: for concentration at 5 min / concentration at 2 h / concentration at 6 h / concentration at 24 h: human, inhaled; for concentration at 5 min: 5 minutes post smoking 0.2 g of marijuana; for concentration at 2 h: 2 hours post smoking 0.2 g of marijuana; for concentration at 6 h: 6 hours post smoking 0.2 g of marijuana; for concentration at 24 h: 24 hours post smoking 0.2 g of marijuana. The source says: 0.2 grams (g) of marijuana was smoked by a test subject. Mucosal surface samples and saliva were collected at different time intervals by scraping the top side of the tongue a polypropylene card having a width×length×thickness of about 2 inches×about 3 inches×about 0.04 inches, using the about 2 inch edge of the card as an abrasive. The mucus specimens were dripped into a glass vial for further analysis. Saliva specimens were collected at the same times by directly expectorating saliva into glass vials.
The specimens were analyzed by a quantitative GC/MS method for the detection of THC.

[1] abbreviates: saliva (expectorated), read-out: THC Concentration, Saliva.
Where [2] appears, read: tongue mucus (mucosal scrapings), mucosal scrapings from the top of the tongue, read-out: THC Concentration, Mucus.

Take `CCCCCc1cc(O)c2c(c1)OC(C)(C)[C@@H]1CCC(C)=C[C@@H]21` [THC, Tetrahydrocannabinol]: under setting [1], the concentration at 5 min was found to be 115 ng/mL, the concentration at 2 h worked out at 16 ng/mL, the concentration at 6 h was 11 ng/mL and the concentration at 24 h is 2.1 ng/mL. Moreover, under setting [2], the concentration at 5 min was 587 ng/mL, the concentration at 2 h was found to be 412 ng/mL, the concentration at 6 h came out at 123 ng/mL and the concentration at 24 h was 44 ng/mL. For the same molecule, the “Retention of THC in mucus specimen compared with saliva” value (mucus vs saliva, 5 minutes to 24 hours after smoking 0.2 g of marijuana) is “significantly higher concentration and for longer time than in saliva”.
